In US20160158246A1, “METHOD OF TREATING DIFFUSE LARGE B-CELL LYMPHOMA (DLBCL) USING A BET-BROMODOMAIN INHIBITOR” (ONCOETHIX GMBH, priority 2013, published 2016):
pIC50: −log10 of the molar value.

Tests used:
mTORC1 = mTORC1 (Homo sapiens, UniProt P42345); conditions: cited from earlier work
mTORC2 = mTORC2 (Homo sapiens, UniProt P42345); conditions: cited from earlier work
[1] = system: pAktS473, pGSK3βS9, pS6, pMAPK, pAktT308; conditions: cited from earlier work
IL10 and IL4 production = experiment: IL10 and IL4 production; type: cell-based; conditions: after 24 hours treatment
[2] = system: NFKB target genes (IRF4, TNFAIP3 and BIRC3); experiment: PCR of NFKB target genes; type: cell-based
[3] = system: pSTAT3 and p50 (NFKB 1) in ABC cell lines; experiment: immunoblotting and immunohistochemistry; type: cell-based
[4] = system: DLBCL cell lines (SU-DHL-6, SU-DHL-2); experiment: gene expression profiling (Illumina HumanHT-12 Expression BeadChips); type: cell-based
Method: Baseline gene expression profiles (GEP) were obtained in 38 lymphoma cell lines, including 22 DLBCL with Illumina HumanHT-12 v4 Expression BeadChip. GEP before and after OTX015 treatment were done in […] DLBCL cell lines, too. The relationship between GEP and IC50 values was assessed by Pearson correlation. LIMMA was used for differential expression analysis, followed by Benjamini-Hochberg multiple test correction, and GSEA to test for enrichment of functionally-related genes.
Cell lines: 22 diffuse large B-cell lymphoma (DLBCL), 4 mantle cell lymphomas, 3 multiple myelomas, 3 splenic marginal zone lymphoma and 1 prolymphocytic leukemia. Anti-proliferative of OTX015 (OncoEthix SA, Switzerland) was assessed by MTT and its cytotoxic activity by Annexin V staining and gene expression profiling (GEP) with Illumina HumanHT-12 Expression BeadChips. Data mining was done with LIMMA, GSEA, Metacore.
We performed GEP on 2 cell lines (SU-DHL-6, SU-DHL-2), treated with DMSO or OTX015 (500 nM) for 1, 2, 4, 8 or 12 hours.

PKC = conditions: cited from earlier work
[5] = system: Lyn, Syk, PKA, casein kinase I, ERK1, ERK2 and p38 kinase; conditions: cited from earlier work
[6] = biological target: Bruton's tyrosine kinase (BTK) (Homo sapiens, UniProt Q06187); conditions: in intact cells and in cell-free systems; cited from earlier work
Bruton's tyrosine kinase (BTK), sequence (Q06187 whole entry, species assumed): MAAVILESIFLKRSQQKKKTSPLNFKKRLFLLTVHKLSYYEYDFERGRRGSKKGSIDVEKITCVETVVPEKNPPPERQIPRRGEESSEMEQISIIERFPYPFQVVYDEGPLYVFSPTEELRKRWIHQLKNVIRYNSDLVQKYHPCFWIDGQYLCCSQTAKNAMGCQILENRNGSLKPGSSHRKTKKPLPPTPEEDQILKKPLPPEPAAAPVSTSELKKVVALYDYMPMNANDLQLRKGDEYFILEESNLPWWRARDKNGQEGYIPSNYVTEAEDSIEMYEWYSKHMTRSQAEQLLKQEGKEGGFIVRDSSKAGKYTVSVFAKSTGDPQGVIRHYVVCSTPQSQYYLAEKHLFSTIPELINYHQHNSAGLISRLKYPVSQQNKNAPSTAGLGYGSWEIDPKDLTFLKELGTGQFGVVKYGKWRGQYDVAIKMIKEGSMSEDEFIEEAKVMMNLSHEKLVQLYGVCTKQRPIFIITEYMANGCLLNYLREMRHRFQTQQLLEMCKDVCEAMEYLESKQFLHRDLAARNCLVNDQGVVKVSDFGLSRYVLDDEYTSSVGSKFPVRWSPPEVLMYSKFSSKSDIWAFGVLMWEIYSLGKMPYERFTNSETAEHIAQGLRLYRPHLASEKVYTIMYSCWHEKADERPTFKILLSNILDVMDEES

BTK and PKCβII = BTK and PKCβII (Homo sapiens, UniProt Q06187); conditions: in intact cells and in cell-free systems; cited from earlier work
BTK and PKCβII, sequence (Q06187 whole entry, species assumed): as above

[7] = SU-DHL-6, SU-DHL-2, 500 nM for 1, 2, 4, 8 or 12 hours

COc1cccc2cc(-c3nc([C@H]4CC[C@H](C(=O)O)CC4)n4ncnc(N)c34)[nH]c12 [OSI-027]
pIC50 (mTORC1): 7.66

COc1ccc(COc2cc3oc(=O)c4cc(C(C)O)ccc4c3cc2OC)cc1 (stereo not shown) [Palomid 529]
mTORC1 complex inhibition (mTORC1): inhibits both the mTORC1 and mTORC2 complexes
mTORC2 complex inhibition (mTORC2): inhibits both the mTORC1 and mTORC2 complexes
effect on phosphorylation markers [1]: reduces phosphorylation of pAktS473, pGSK3βS9, and pS6 but neither pMAPK nor pAktT308

Cc1sc2c(c1C)C(c1ccc(Cl)cc1)=N[C@@H](CC(=O)Nc1ccc(O)cc1)c1nnc(C)n1-2 [Compound (1-1), 2-[(6S)-4-(4-chlorophenyl)-2,3,9-trimethyl-6H-thienol[3,2-f]-[1,2,4]triazolo[4,3-a][1,4]diazepin-6-yl]-N-(4-hydroxyphenyl)acetamide dihydrate]
IL10 and IL4 production (IL10 and IL4 production): IL10 and IL4 production was reduced
NFKB target gene expression (PCR) [2]: NFKB target genes (IRF4, TNFAIP3 and BIRC3) were also downregulated
nuclear localization of p50 (NFKB 1) [3]: reduction in nuclear localization of p50 (NFKB 1)
transcriptionally active pSTAT3 ([3]; 2 ABC cell lines): reduction of transcriptionally active pSTAT3
MYD88/JAK/STAT pathway expression (additional GEP) ([4]; Example 7): down-regulation of the MYD88/JAK/STAT pathway
genes downregulated (GEP), members of the NFKB, TLR and JAK/STAT pathways [4, 7]: downregulated MYD88, IRAK1, TLR6, IL6, STAT3, and TNFRSF17
most frequently downregulated gene (GEP) [4, 7]: MYC was the most frequently downregulated gene
most upregulated genes (GEP) [4, 7]: Most upregulated genes were histones

CC1=C(O)C(=O)[C@@H]2O[C@@H]2C1=O [Terreic acid, (1R,6S)-3-Hydroxy-4-methyl-7-oxabicyclo[4.1.0]hept-3-ene-2,5-dione]
activity of PKC (PKC): without affecting the activity of PKC
effect on activities of Lyn, Syk, PKA, casein kinase I, ERK1, ERK2 and p38 kinase [5]: little or no effect
catalytic activity of BTK [6]: Inhibits the catalytic activity of BTK
interaction between BTK and PKCβII (BTK and PKCβII): Inhibits the catalytic activity of BTK as well as the interaction between BTK and PKCβII
